Measured values: patent US20060286670A1, “Transplant acceptance inducing cells of monocytic origin and their preparation and use” (BLASTICON BIOTECHNOLOGISCHE FORSCHUNG GMBH, priority 2002, published 2006)

Tested on: PHA-stimulated lymphocytes
Assay: Mixed lymphocyte culture of PHA-stimulated lymphocytes and TAIC, 3[H]-thymidine incorporation
Format: cell-based, human
Details: 2 μmol 1-MT
Method: In order to clarify, whether the inhibitor of the enzyme indolamine-2,3-dioxygenase (IDO) 1-methyltryptophane (1-MT) influences the suppressor function of the TAIC generated in the “Mo” and “Mo+Ly” set ups (see Example 11), a variety of mixed lymphocyte cultures (MLC) with PHA (phytohaemagglutinine) stimulated T-cells in the presence and in the absence of 1-MT were established.
In these mixed lymphocyte cultures 50.000 lymphocytes with 2 μg […] were transferred into the wells of a 96-well-plate, followed by a proliferation period over 144 hours (indicated as “PhaLy”). Lymphocytes only cultivated in medium without addition of PHA were run as a further control (indicated as “Ly”).
In order to determine the proliferation of PHA-stimulated lymphocytes in the different co-cultures, the following 4 set ups were run and examined:
In this arrangement, the amount of the radio activity determined is a measure for the amount of labeled thymidine incorporated into the DNA, and therefore a measure for the proliferation rate of the lymphocytes. The values reported in FIG. 8 correspond to mean values from triple determinations of 3 experiments each with indication of the standard deviation.

With Cn1cc(C[C@H](N)C(=O)O)c2ccccc21 [1-MT, 1-methyltryptophane] as the molecule, how does the “influence on the suppressor function of the TAIC” value read?
The value was “increases the suppressor function of the TAIC synergistically”.
